Measured values: patent US20240317792A1, “CYCLIC DINUCLEOTIDE METAL COMPOUND, AND PREPARATION AND APPLICATION THEREOF” (HANGZHOU XINGAO BIOTECHNOLOGY CO., LTD., priority 2022, published 2024)

Columns and labels:
[1] = test system: APP/PSI transgenic AD model mice; test: Morris water maze spatial probe test, cognitive ability of AD model mice; format: in vivo; details: 10 mg/kg intraperitoneal injection once every 2 days for 60 days
Source text: (§1) Experimental materials, purchased from Shanghai Model Organisms Center Inc, were APP/PSI transgenic AD model mice, aged 4 months old and weighing 24-26 g. The AD model mice were randomly divided into 7 groups (10 mice in each group). The 7 groups were listed as follows: A: AD model group, as a negative control group (administration of normal saline); B: cGAMP group, as a positive control group (administration of cyclic dinucleotide); C: [Li2(cGAMP)] group (administration of lithium cyclic dinucleotide prepared in Example 1); D: [Mg(cGAMP)] group (administration of magnesium cyclic dinucleotide prepared in Example 2); E: [Zn(cGAMP)] group (administration of zinc cyclic dinucleotide prepared in Example 5); F: [Mn(cGAMP)] group (administration of manganese cyclic dinucleotide prepared in Example 3); G: [Fe(cGAMP)] group (administration of ferrous cyclic dinucleotide prepared in Example 4). The administration in groups C-G was performed as follows. The powdered cyclic dinucleotide metal compounds were prepared into solutions of required concentration with normal saline, respectively. The administration dosage was 10 mg/kg, and the administration was performed via intraperitoneal injection once every 2 days for 60 consecutive days.
The Morris water maze test was performed in a round pool, 1 m in diameter, 50 cm high and 30 cm deep with a white bottom of the pool. Water temperature of the Morris water maze was 23±2° C. Four equidistant points, N, E, S and W, were marked on a pool wall as four starting points for tests. The pool was divided into four quadrants, and a platform, which was equidistant from the pool wall and a center of the pool, was placed in the third quadrant. The platform was immersed under water at a depth of 1 cm, so that the platform was not visible. A lot of reference clues (the reference clues were triangles, quadrangles, circles, and diamonds with different colors placed in each quadrant) were pasted around the pool and kept constant for the AD model mice to locate the platform.
A place navigation test was performed for 6 days, and the AD model mice were subjected to training 4 times per day at fixed time spans. At the beginning of the training, the platform was placed in the […]. An AD model mouse was placed into the water facing the pool wall at any one of the four starting points. A record system was used to record time and a swimming path that the AD model mouse found the platform. The AD model mouse was placed into the water at different four starting points (in different quadrants) in the 4-time-training. The AD model mouse found the platform and rested on the platform for 10 seconds followed by next test. Or if the AD model mouse could not find the platform within 90 seconds (a latency was recorded as 90 seconds), the AD model mouse was guided to the platform by an experimenter and rested for 10 seconds followed by next test.
24 h after the place navigation test, the platform was removed. Then the AD model mouse was placed into the water in the third quadrant, the swimming path in 180 s was recorded. Remain time and a number of the AD model mouse crossing through a location of the platform of the AD model mouse in a target quadrant (the third quadrant) were recorded to observe the spatial localization ability of the AD model mouse. SPSS10.0 software was used to process, and one-way analysis of variance (ANOVA) was adopted to compare significance of difference between the 7 groups.

[2] = test system: amyloid plaques in the brains of the AD model mice; test: Thioflavin S dyeing of amyloid plaque deposition in brains of AD model mice; format: in vivo; details: 10 mg/kg intraperitoneal once every 2 days, 60 days
Source text: as §1
This example conducted a Thioflavin S dyeing experiment including the following steps. 60 days after the drug administration, brain tissues of the AD model mice were taken and subjected to fixing, paraffin embedding, section, dimethylbenzene dewaxing, gradient dehydration with ethanol and washing with tris buffered saline (TBS) three times. 0.3 wt. % of Thioflavin S (dissolved in 50 wt. % of ethanol) was dropped onto the brain tissues. The brain tissues were incubated for 10 min followed by washing with 50 wt. % of ethanol, PBS-washing, shade drying and sealing. A laser scanning confocal microscope (Leica, Germany) was used to detect changes of an amount of amyloid plaque deposition in the brains of the AD model mice.

[3] = test system: Dendritic cells (DCs) (CD40\CD80\CD86\MHCII); test: Flow cytometry of dendritic cell activation markers after immunization; format: in vivo, C57BL/6 ordinary mice; details: fluorescence intensity (MFI), after 14 days of immunization
Source text: Experimental animals: C57BL/6 ordinary mice, male, weighing 20-22 grams, 7-8 weeks old, purchased from Shanghai SLAC Laboratory Animal Co. Ltd.
The mice were randomly divided into 8 groups (10 mice in each group). The 8 groups were as listed follows: A: Negative control group (isotype control antibody group); B: blank group; C: cyclic dinucleotide group; D: [Li2(cGAMP)] group; E: [Mg(cGAMP)] group; F: [Zn(cGAMP)] group; G: [Mn(cGAMP)] group; and H: [Fe(cGAMP)] group. Isotype control flow antibody was purchased from eBiosciences, antibody magnetic strain was purchased from Militeny Biotech, and flow cytometry was purchased from BD company. After 14 days of immunization (immunization process was the same as that in the Example 12), spleens and lung tissues of the mice were collected, respectively mashed, filtered through 40 micron pores followed by 1000 rpm of centrifugation for 10 min to solate unlysed immune cells. Dendritic cells (DCs) (CD40\CD80\CD86\MHCII), T(CD8+) cells were separated, and added with corresponding FAC antibodies (diluted with Fluorescence-Activated Cell Sorting (FACS) buffer). Isotype control antibody was used as negative control. After antibody addition, the DCs and T (CD8+) cells were incubate for 1 h, centrifuged and washed by phosphate buffer saline (PBS) followed by analysis by the flow cytometry to sort suitable cells. Fluorescence intensity (MFI) of sorted cells was measured.

Row | Compound | Percentage of time of the AD model mice crossing through the platform in the third quadrant [1] [%] | Average points of amyloid plaque fluorescence intensity in the brain tissues of the AD mice (field of vision) [2] | Spleen CD40 [3] | Spleen CD80 [3] | Spleen CD86 [3] | Spleen MGCII [3]
1 | Nc1nc2c(ncn2C2OC3COP(=O)([O-])OC4C(COP(=O)([O-])OC2C3O)OC(n2cnc3c(N)ncnc32)C4O)c(=O)[nH]1.[Fe+2] (stereo not drawn) [[Fe(cGAMP)], ferrous cyclic dinucleotide] | 0.81 ± 0.23 | 410 ± 91 | 236.8 | 134.6 | 24.1 | 247.1
2 | Nc1nc2c(ncn2[C@@H]2O[C@@H]3COP(=O)([O-])O[C@H]4[C@@H](O)[C@H](n5cnc6c(N)ncnc65)O[C@@H]4COP(=O)([O-])O[C@@H]2[C@@H]3O)c(=O)[nH]1.[Li+].[Li+] [[Li2(cGAMP)], lithium cyclic dinucleotide] | 0.91 ± 0.18 | 165 ± 75 | 136.2 | 157.6 | 21.7 | 250.8
3 | Nc1nc2c(ncn2[C@@H]2O[C@@H]3COP(=O)([O-])O[C@H]4[C@@H](O)[C@H](n5cnc6c(N)ncnc65)O[C@@H]4COP(=O)([O-])O[C@@H]2[C@@H]3O)c(=O)[nH]1.[Mg+2] [[Mg(cGAMP)], magnesium cyclic dinucleotide] | 0.78 ± 0.10 | 480 ± 80 | 156.6 | 234.6 | 36.8 | 338.2
4 | Nc1nc2c(ncn2C2OC3COP(=O)([O-])OC4C(COP(=O)([O-])OC2C3O)OC(n2cnc3c(N)ncnc32)C4O)c(=O)[nH]1.[Mn+2] (stereo not drawn) [[Mn(cGAMP)], manganese cyclic dinucleotide] | 0.83 ± 0.21 | 390 ± 87 | 255.9 | 132.6 | 26.3 | 276.3
5 | Nc1nc2c(ncn2[C@@H]2O[C@@H]3COP(=O)([O-])O[C@H]4[C@@H](O)[C@H](n5cnc6c(N)ncnc65)O[C@@H]4COP(=O)([O-])O[C@@H]2[C@@H]3O)c(=O)[nH]1.[Zn+2] [[Zn(cGAMP)], zinc cyclic dinucleotide] | 0.86 ± 0.16 | 360 ± 75 | 264.7 | 245.7 | 42.6 | 424.5
6 | Nc1nc2c(ncn2[C@@H]2O[C@@H]3COP(=O)(O)O[C@H]4[C@@H](O)[C@H](n5cnc6c(N)ncnc65)O[C@@H]4COP(=O)(O)O[C@@H]2[C@@H]3O)c(=O)[nH]1 [cGAMP, 2′3′-cGAMP, reference compound] | 0.62 ± 0.17 | 1790 ± 180 | 120.5 | 112.1 | 16.5 | 208.1
